Reference: patent publication US20230295106A1 (priority 2019, published 2023)

Key:
[1] = target: T1, 5-HT2C edited (accession number AAF35842.1) (Homo sapiens, UniProt P28335, I156V/I160V/N158S); assay: cell-based; settings: 5-HT2C IPOne Agonism Activity
Target sequence in this assay (P28335 whole entry I156V/N158S/I160V, looked up): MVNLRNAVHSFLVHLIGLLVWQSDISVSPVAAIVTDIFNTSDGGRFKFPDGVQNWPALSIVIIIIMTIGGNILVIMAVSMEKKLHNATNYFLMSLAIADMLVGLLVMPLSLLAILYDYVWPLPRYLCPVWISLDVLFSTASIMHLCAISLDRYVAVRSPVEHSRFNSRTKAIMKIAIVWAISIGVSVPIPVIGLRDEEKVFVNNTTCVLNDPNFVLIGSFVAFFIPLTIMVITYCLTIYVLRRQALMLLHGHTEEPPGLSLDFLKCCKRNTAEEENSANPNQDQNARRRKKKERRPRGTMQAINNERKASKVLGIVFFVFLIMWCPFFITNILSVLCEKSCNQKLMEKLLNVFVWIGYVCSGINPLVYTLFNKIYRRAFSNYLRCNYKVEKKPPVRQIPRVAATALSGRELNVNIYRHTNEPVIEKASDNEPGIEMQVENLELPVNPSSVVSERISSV

[2] = target: T1, 5-HT2C edited (accession number AAF35842.1); assay: biochemical; settings: 5-HT2C Radioligand Binding Activity
Target sequence in this assay (P28335 33-458 I156V/N158S/I160V limits assumed): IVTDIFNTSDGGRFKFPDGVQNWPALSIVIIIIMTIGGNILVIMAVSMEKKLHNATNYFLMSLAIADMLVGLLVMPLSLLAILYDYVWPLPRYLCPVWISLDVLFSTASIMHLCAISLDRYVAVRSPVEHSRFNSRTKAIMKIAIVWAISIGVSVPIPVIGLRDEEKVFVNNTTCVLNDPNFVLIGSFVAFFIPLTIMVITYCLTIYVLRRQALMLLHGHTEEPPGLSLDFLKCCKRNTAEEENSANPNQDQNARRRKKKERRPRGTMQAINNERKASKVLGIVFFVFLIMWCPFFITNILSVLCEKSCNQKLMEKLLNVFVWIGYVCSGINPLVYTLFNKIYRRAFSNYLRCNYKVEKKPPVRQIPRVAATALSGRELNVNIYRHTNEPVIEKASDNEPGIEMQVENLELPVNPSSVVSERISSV

[3] = target: human recombinant 5-HT2C edited receptor (accession number AAF35842.1) (Homo sapiens, UniProt P28335, I156V/N158S/I160V); assay: cell-based; settings: read-out: 5-HT2C IPOne Agonism Activity
Chain of human recombinant 5-HT2C edited receptor (accession number AAF35842.1) (P28335 whole entry I156V/N158S/I160V, looked up): as the sequence (P28335 whole entry I156V/N158S/I160V, looked up) above

Structure (SMILES)	EC50 [1] [nM]	IC50 [2] [nM]	EC50 [3] [nM]
CCN(CC)C(=O)[C@@H]1C=C(c2cc(OC)cc(OC)c2)CN(C)C1 (single isomer, unassigned) [Compound 5, 5-(3,5-dimethoxyphenyl)-N,N-diethyl-1-methyl-1,2,3,6-tetrahydropyridine-3-carboxamide]	101 to 1000	101 to 1000	–
CCN(CC)C(=O)[C@@H]1C=C(c2cc(OC)cc(OC)c2)CN(C)C1 (single isomer, unassigned) [Compound 6, 5-(3,5-dimethoxyphenyl)-N,N-diethyl-1-methyl-1,2,3,6-tetrahydropyridine-3-carboxamide]	1000 to 10000	1000 to 10000	–
CCN(CC)C(=O)[C@@H]1C=C(c2ccccc2OC)CN(C)C1 (single isomer, unassigned) [Compound 7, N,N-diethyl-5-(2-methoxyphenyl)-1-methyl-1,2,3,6-tetrahydropyridine-3-carboxamide]	101 to 1000	101 to 1000	–
CCN(CC)C(=O)[C@@H]1C=C(c2ccccc2OC)CN(C)C1 (single isomer, unassigned) [Compound 8, N,N-diethyl-5-(2-methoxyphenyl)-1-methyl-1,2,3,6-tetrahydropyridine-3-carboxamide]	1000 to 10000	1000 to 10000	–
CCN(CC)C(=O)[C@@H]1C=C(c2cccc(OC)c2)CN(C)C1 (single isomer, unassigned) [Compound 9, N,N-diethyl-5-(3-methoxyphenyl)-1-methyl-1,2,3,6-tetrahydropyridine-3-carboxamide]	10 to 100	10 to 100	–
CCN(CC)C(=O)[C@@H]1C=C(c2cccc(OC)c2)CN(C)C1 (single isomer, unassigned) [Compound 10, N,N-diethyl-5-(3-methoxyphenyl)-1-methyl-1,2,3,6-tetrahydropyridine-3-carboxamide]	101 to 1000	101 to 1000	–
CN(C)C1Cc2cccc3ccn(c23)C1 (single isomer, unassigned) [Compound 14, N,N-dimethyl-5,6-dihydro-4H-pyrrolo[3,2,1-ij]quinolin-5-amine]	101 to 1000	10 to 100	–
CN(C)C1Cc2cccc3ccn(c23)C1 (single isomer, unassigned) [Compound 15, N,N-dimethyl-5,6-dihydro-4H-pyrrolo[3,2,1-ij]quinolin-5-amine]	–	101 to 1000	101 to 1000
NC1Cc2cccc3ccn(c23)C1 (centres unmarked) [Compound 13, 5,6-dihydro-4H-pyrrolo[3,2,1-ij]quinolin-5-amine]	101 to 1000	101 to 1000	–
CCN(CC)C1Cc2cccc3ccn(c23)C1 (centres unmarked) [Compound 16, N,N-diethyl-5,6-dihydro-4H-pyrrolo[3,2,1-]quinolin-5-amine]	101 to 1000	101 to 1000	–
NC1Cc2cc(F)cc3ccn(c23)C1 (centres unmarked) [Compound 17, 8-fluoro-5,6-dihydro-4H-pyrrolo[3,2,1-ij]quinolin-5-amine]	101 to 1000	101 to 1000	–
NC1Cc2c(F)ccc3ccn(c23)C1 (centres unmarked) [Compound 19, 7-fluoro-5,6-dihydro-4H-pyrrolo[3,2,1-ij]quinolin-5-amine]	101 to 1000	101 to 1000	–
NC1Cc2cc(Cl)cc3ccn(c23)C1 (centres unmarked) [Compound 21, 8-chloro-5,6-dihydro-4H-pyrrolo[3,2,1-ij]quinolin-5-amine]	101 to 1000	101 to 1000	–
NC1Cc2c(Cl)ccc3ccn(c23)C1 (centres unmarked) [Compound 23, 7-chloro-5,6-dihydro-4H-pyrrolo[3,2,1-ij]quinolin-5-amine]	101 to 1000	101 to 1000	–
COc1cc2c3c(ccn3CC(N)C2)c1 (centres unmarked) [Compound 25, 8-methoxy-5,6-dihydro-4H-pyrrolo[3,2,1-ij]quinolin-5-amine]	1000 to 10000	1000 to 10000	–
NC1Cc2cccc3[nH]cc(c23)C1 (centres unmarked) [Compound 27, 1,3,4,5-tetrahydrobenzo[cd]indol-4-amine]	101 to 1000	101 to 1000	–
